Assay results reported in US8871751B2, “Compositions and methods relating to nuclear hormone and steroid hormone receptors including inhibitors of estrogen receptor alpha-mediated gene expression and inhibition of breast cancer” (The Board of Trustees of the University of Illinois, priority 2008, dated 2014).
pIC50: −log10 of the molar value.

Columns and labels:
ERα = target: T1, ERα (Homo sapiens, UniProt P03372); design: Using a stably transfected breast cancer cell line that expresses endogenous ERα; endogenous in cells; host or cells: T47D-KBluc; details: T47D cells, conditions identical to TPSF; see Mao C et al., 2008; read-out: IC50 for inhibition of E2-ERα-mediated (ERE)3-luciferase expression; cited from earlier work
T1 sequence (P03372 1-595): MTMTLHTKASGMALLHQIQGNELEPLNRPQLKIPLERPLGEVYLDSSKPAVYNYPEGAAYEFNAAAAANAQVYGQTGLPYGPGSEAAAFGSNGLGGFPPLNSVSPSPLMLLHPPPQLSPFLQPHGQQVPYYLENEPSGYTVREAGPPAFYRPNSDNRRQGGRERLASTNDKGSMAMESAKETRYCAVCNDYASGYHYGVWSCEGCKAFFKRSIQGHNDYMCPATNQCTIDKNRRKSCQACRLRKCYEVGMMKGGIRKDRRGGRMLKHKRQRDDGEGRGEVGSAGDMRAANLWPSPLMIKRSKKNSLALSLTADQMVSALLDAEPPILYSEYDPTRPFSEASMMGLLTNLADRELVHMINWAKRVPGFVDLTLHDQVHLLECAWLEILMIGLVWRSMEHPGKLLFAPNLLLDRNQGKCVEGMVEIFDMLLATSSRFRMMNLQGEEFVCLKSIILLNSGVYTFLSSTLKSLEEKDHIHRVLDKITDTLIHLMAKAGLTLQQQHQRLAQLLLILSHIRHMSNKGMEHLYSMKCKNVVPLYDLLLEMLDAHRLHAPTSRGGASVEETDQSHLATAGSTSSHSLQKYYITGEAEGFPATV

MCF7ERαHA cells = experiment: Growth of tamoxifen-resistant MCF7ERαHA cells (MTS); format: cell-based, human; details: 5 μM, Dox, 1 pM E2, 4 days
Procedure: FIG. 19 illustrates that TPSF, but not OHT, is capable of inhibiting E2-ERα-dependent growth of tamoxifen-resistant breast cancer cells as measured in MCF7ERαHA cells. MCF7ERαHA cells were maintained for 4 days in 6× stripped CD-FBS, seeded into 12 well plates containing or lacking Dox (0.5 μg/ml), E2 (1 pM) OHT (5 μM) and TPSF (5 μM), grown for 4 days and assayed using MTS with a standard curve for cell number. Cells in ethanol and DMSO vehicle alone were set to 100%. Data represents the average of 3 experiments±SEM. The difference between the cells incubated with TPSF+E2+Dox compared to the cells in Dox, and E2 and to the cells in Dox, E2 and OHT was significant (P<0.05 using Student's two-tailed T test).
(§1) Assays for Cell Growth and Viability. Cells were maintained in the media listed above containing CD-treated serum for at least 4 days prior to the experiment. To minimize cell aggregation, MCF-7 cells were harvested in 10 mM Hepes, pH 7.4, 1 mM EDTA. Other cell lines were harvested in trypsin-EDTA. 1,000 cells were plated into each well of a 96 well plate. For slow growing ZR-75 cells, 2,000 cells were plated/well. The cells were maintained in medium containing CD-treated serum for 24 hours. […] After 4 days viable cells were determined using a cell viability test, Promega CellTiter 96 Aqueous One Solution Cell Proliferation Assay (MTS) (Promega, Wis.).

BT474 cells = experiment: E2-ERα-dependent growth of BT474 cells (MTS); format: cell-based; details: Homo sapiens, BT-474, 96 h, 100 pM E2, 4 days, read-out: IC50 for inhibition of E2-ERα-dependent growth of BT474 cells
Procedure: (§2) FIG. 20 illustrates further activity of TPSF in the inhibition of tamoxifen-resistant human breast cancer cells. The effects of TPSF on the E2-ERα-dependent growth of tamoxifen-resistant BT474 and ZR-75 cells were assessed. […] The cells were maintained in medium containing 10% CD-FBS (ZR-75) or 10% CD-CS (BT474) containing or lacking 100 pM E2 and the indicated concentrations of TPSF. Viable cells were measured by comparison to a standard curve of cell number versus absorbance using the MTS assay. Data represents the average of at least 4 wells. IC50 values for TPSF inhibition of cell growth were calculated by curve-fitting using Sigma Plot.
as §1, with “hours. At 24 hours the medium was changed and E2 and DMSO vehicle or TPSF in DMSO was added.” for “hours.”

ZR-75 cells = experiment: E2-ERα-dependent growth of ZR-75 cells (MTS); format: cell-based; details: Homo sapiens, ZR75, 96 h, 100 pM E2, 4 days, read-out: IC50 for inhibition of E2-ERα-dependent growth of ZR-75 cells
Procedure: as §2
as §1, with “hours. At 24 hours the medium was changed and E2 and DMSO vehicle or TPSF in DMSO was added.” for “hours.”

Row | pIC50 (BT474 cells) | SMILES | pIC50 (ERα) | effect on E2-ERα-dependent growth of MCF7ERαHA cells (MCF7ERαHA cells) | pIC50 (ZR-75 cells)
1 |  | Cn1c(=O)c2nc(CSCc3ccccc3)[nH]c2n(C)c1=O [Compound 95910, 8-Benzylsulfanylmethyl-1,3-dimethyl-3,7-dihydro-purine-2,6-dione] | 4.96 |  | 
2 | 5.80 | Cn1c(=S)c2[nH]c(SCCCC(=O)c3ccc(F)cc3)nc2n(C)c1=O [TPSF, Butyrophenone, p-fluoro-4-(1,2,3,6,-tetrahydro-1,3-dimethyl-2-oxo-6-thionopurin-8-ylthio)] |  | inhibited | 6.05
